How the values were obtained:
ZEAMX (Corn, Field) [1] = test: Postemergence herbicidal evaluation; assay type: in vivo, Zea mays; details: postemergence
In short: (§1)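 Compound is applied as a foliar spray to seedlings about two weeks old, formulated in equal parts acetone and water with 0.5% TWEEN 20 and delivered at 40 psi to give about 0.0156–0.500 kg per hectare. Injury is rated visually 0–9 after four to five weeks.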

[2] = test system: IPOHE (Morningglory, Ivyleaf); test: Preemergence herbicidal evaluation; assay type: in vivo, Ipomoea hederacea; details: rated 4-5 weeks after treatment
Source text: (§2) Results of herbicide evaluation are expressed on a rating scale (0-9). The scale is based upon a visual observation of plant stand, vigor, malformation, size, chlorosis and overall plant appearance as compared with a control.
(§3) The preemergence herbicidal activity of the test compounds of the present invention is exemplified by the following tests in which the seeds of a variety of monocotyledonous and dicotyledonous plants are separately mixed with potting soil and planted on top of approximately one inch of soil in separate pint cups. After planting, the cups are sprayed with the selected aqueous acetone solution containing test compound in sufficient quantity to provide the equivalent of about 0.0156 to 0.500 kg per hectare of test compound per cup. The treated cups are then placed on greenhouse benches, watered and cared for in accordance with conventional greenhouse procedures. From four to five weeks after treatment, the tests are terminated and each cup is examined and rated according to the rating system provided in Example 37.
(§4) The compounds evaluated are reported by compound number given in Example 37.

ZEAMX (Corn, Field) [3] = test: Preemergence herbicidal evaluation; assay type: in vivo, Zea mays; details: rated 4-5 weeks after treatment
Source text: as §2, §3, §4

CYPSE (Flatsedge) = test: Preemergence weed control under flooded paddy conditions; assay type: in vivo, Cyperus serotinus; details: rated 3-4 weeks after treatment
In short: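 Values are visual 0-9 scores against a control for a preemergence application into paddy flood water at about 0.0313 to 0.500 kg/ha. Greenhouse duration was three to four weeks.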

GALAP (Galium) = test: Postemergence herbicidal evaluation; assay type: in vivo, Galium aparine; details: postemergence
In short: as §1

CYPIR (Rice Flatsedge) = test: Preemergence weed control under flooded paddy conditions; assay type: in vivo, Cyperus iria; details: rated 3-4 weeks after treatment
In short: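 Seeds or propagules sown in top 0.5 cm of silt loam soil, flooded 1.5 to 3 cm above surface throughout. Compound in 50/50 v/v aqueous/acetone pipetted into flood water at about 0.0313 to 0.500 kg/ha. Visual 0-9 rating versus control after three to four weeks in greenhouse.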

AMBEL (Ragweed, Common) = test: Preemergence herbicidal evaluation; assay type: in vivo, Ambrosia artemisifolia; details: rated 4-5 weeks after treatment
Source text: as §2, §3, §4

[4] = test system: ECHORC (Watergrass (Calif.)); test: Preemergence weed control under flooded paddy conditions; assay type: in vivo, Echinochloa oryzoides; details: rated 3-4 weeks after treatment
Protocol: as §2
Preemergence herbicidal activity under flooded paddy conditions is determined as follows: plant seeds or propagating organs are planted in the top 0.5 cm of silt loam soil in 32 oz. plastic containers with a diameter of 10.5 cm and no drainage holes. Water is added to these containers and maintained at 1.5 to 3 cm above the soil surface for the duration of the experiment. The test compounds are applied as aqueous/acetone mixtures 50/50 v/v pipetted directly into the flood water to give the equivalent of about 0.0313 to 0.500 kg/ha of active ingredient. The treated containers are placed on greenhouse benches and cared for in accordance with conventional greenhouse procedures. Three to four weeks after treatment, the test is terminated and each container is examined and herbicidal effect rated according to the rating system provided in Example 37. The compounds evaluated are reported by compound number given in Example 37.
Plant species employed in this example are reported by header abbreviation, common name and scientific name.

[5] = test system: TRZAWR (Wheat, Winter, cv Riband); test: Preemergence herbicidal evaluation; assay type: in vivo, Triticum aestivum; details: rated 4-5 weeks after treatment
Source text: as §2, §3, §4

[6] = test system: CHEAL (Lambsquarters, Common); test: Preemergence herbicidal evaluation; assay type: in vivo, Chenopodium album; details: rated 4-5 weeks after treatment
Source text: as §2, §3, §4

CASOB (Sicklepod) = test: Postemergence herbicidal evaluation; assay type: in vivo, Cassia obtusifolia; details: postemergence
Protocol: In the tests, seedling plants are grown in jiffy flats for about two weeks. The test compounds are dispersed in 50/50 acetone/water mixtures containing 0.5% TWEEN®20, a polyoxyethylene sorbitan monolaurate surfactant of Atlas Chemical Industries, in sufficient quantities to provide the equivalent of about 0.0156 kg to 0.500 kg per hectare of active compound when applied to the plants through a spray nozzle operating at 40 psi for a predetermined time. After spraying, the plants are placed on greenhouse benches and are cared for in accordance with conventional greenhouse procedures. From four to five weeks after treatment, the seedling plants are examined and rated according to the rating system set forth below. Where more than one test is involved for a given compound, the data are averaged.
Plant species employed in these evaluations are reported by header abbreviation, common name and scientific name.
as §2

ORYSAT (Rice, Tebonnet) = test: Preemergence herbicidal evaluation; assay type: in vivo, Oryza sativa, (L.) Tebonnet; details: rated 4-5 weeks after treatment
Source text: as §2, §3, §4

Q: What does the source list for `Cn1c(C(F)(F)F)cc(=O)n(-c2cc(N=C3SCC(=O)N3C3CCCC3)c(Cl)cc2F)c1=O` [Compound 166, 3-{4-Chloro-5-[(3-cyclopentyl-4-oxo-2-thiazolidinylidene)amino]-2-fluorophenyl}-1-methyl-6-(trifluoromethyl)-2,4(1H,3H)-pyrimidinedione]?
A: Herbicidal rating ZEAMX (ZEAMX (Corn, Field) [1]; rate 0.0156 kg/ha): 3.0; Herbicidal rating ZEAMX (ZEAMX (Corn, Field) [1]; rate 0.0313 kg/ha): 3.0; Herbicidal rating ZEAMX (ZEAMX (Corn, Field) [1]; rate 0.0625 kg/ha): 3.5; Herbicidal rating ZEAMX (ZEAMX (Corn, Field) [1]; rate 0.1250 kg/ha): 4.5; Preemergence herbicidal rating IPOHE ([2]; 0.0156 kg/ha): 0.0; Preemergence herbicidal rating IPOHE ([2]; 0.0313 kg/ha): 3.0; Preemergence herbicidal rating IPOHE ([2]; 0.1250 kg/ha): 2.0; Preemergence herbicidal rating IPOHE ([2]; 0.2500 kg/ha): 6.0; Preemergence herbicidal rating IPOHE ([2]; 0.5000 kg/ha): 8.0; Preemergence herbicidal rating ZEAMX (ZEAMX (Corn, Field) [3]; 0.0156 kg/ha): 0.0; Preemergence herbicidal rating ZEAMX (ZEAMX (Corn, Field) [3]; 0.0313 kg/ha): 0.0; Preemergence herbicidal rating ZEAMX (ZEAMX (Corn, Field) [3]; 0.0625 kg/ha): 1.0; Preemergence herbicidal rating ZEAMX (ZEAMX (Corn, Field) [3]; 0.1250 kg/ha): 1.0; Preemergence herbicidal rating ZEAMX (ZEAMX (Corn, Field) [3]; 0.2500 kg/ha): 3.0; Preemergence herbicidal rating ZEAMX (ZEAMX (Corn, Field) [3]; 0.5000 kg/ha): 6.0; herbicidal effect rating, CYPSE (CYPSE (Flatsedge); 0.0313 kg/ha): 0.0; herbicidal effect rating, CYPSE (CYPSE (Flatsedge); 0.0625 kg/ha): 0.0; herbicidal effect rating, CYPSE (CYPSE (Flatsedge); 0.1250 kg/ha): 0.0; herbicidal effect rating, CYPSE (CYPSE (Flatsedge); 0.2500 kg/ha): 0.0; Herbicidal rating GALAP (GALAP (Galium); rate 0.0156 kg/ha): 0.0; Herbicidal rating GALAP (GALAP (Galium); rate 0.0313 kg/ha): 0.0; Herbicidal rating GALAP (GALAP (Galium); rate 0.0625 kg/ha): 0.0; Herbicidal rating GALAP (GALAP (Galium); rate 0.1250 kg/ha): 2.0; herbicidal effect rating, CYPIR (CYPIR (Rice Flatsedge); 0.0313 kg/ha): 2.0; herbicidal effect rating, CYPIR (CYPIR (Rice Flatsedge); 0.0625 kg/ha): 2.0; herbicidal effect rating, CYPIR (CYPIR (Rice Flatsedge); 0.1250 kg/ha): 6.0; herbicidal effect rating, CYPIR (CYPIR (Rice Flatsedge); 0.2500 kg/ha): 9.0; Preemergence herbicidal rating AMBEL (AMBEL (Ragweed, Common); 0.0156 kg/ha): 1.0; Preemergence herbicidal rating AMBEL (AMBEL (Ragweed, Common); 0.0313 kg/ha): 0.0; Preemergence herbicidal rating AMBEL (AMBEL (Ragweed, Common); 0.0625 kg/ha): 3.0; Preemergence herbicidal rating AMBEL (AMBEL (Ragweed, Common); 0.1250 kg/ha): 6.0; Preemergence herbicidal rating AMBEL (AMBEL (Ragweed, Common); 0.2500 kg/ha): 7.0; Preemergence herbicidal rating AMBEL (AMBEL (Ragweed, Common); 0.5000 kg/ha): 7.0; herbicidal effect rating, ECHORC ([4]; 0.0313 kg/ha): 2.0; herbicidal effect rating, ECHORC ([4]; 0.0625 kg/ha): 2.0; herbicidal effect rating, ECHORC ([4]; 0.1250 kg/ha): 2.0; herbicidal effect rating, ECHORC ([4]; 0.2500 kg/ha): 4.0; Preemergence herbicidal rating TRZAWR ([5]; 0.0156 kg/ha): 0.0; Preemergence herbicidal rating TRZAWR ([5]; 0.0313 kg/ha): 0.0; Preemergence herbicidal rating TRZAWR ([5]; 0.0625 kg/ha): 1.0; Preemergence herbicidal rating TRZAWR ([5]; 0.1250 kg/ha): 1.0; Preemergence herbicidal rating TRZAWR ([5]; 0.2500 kg/ha): 1.0; Preemergence herbicidal rating TRZAWR ([5]; 0.5000 kg/ha): 3.0; Preemergence herbicidal rating CHEAL ([6]; 0.0156 kg/ha): 1.0; Preemergence herbicidal rating CHEAL ([6]; 0.0313 kg/ha): 0.0; Preemergence herbicidal rating CHEAL ([6]; 0.0625 kg/ha): 3.0; Preemergence herbicidal rating CHEAL ([6]; 0.1250 kg/ha): 9.0; Preemergence herbicidal rating CHEAL ([6]; 0.2500 kg/ha): 9.0; Preemergence herbicidal rating CHEAL ([6]; 0.5000 kg/ha): 9.0; Herbicidal rating CASOB (CASOB (Sicklepod); rate 0.0156 kg/ha): 0.0; Herbicidal rating CASOB (CASOB (Sicklepod); rate 0.0313 kg/ha): 0.0; Herbicidal rating CASOB (CASOB (Sicklepod); rate 0.0625 kg/ha): 0.0; Herbicidal rating CASOB (CASOB (Sicklepod); rate 0.1250 kg/ha): 1.0; Preemergence herbicidal rating ORYSAT (ORYSAT (Rice, Tebonnet); 0.0156 kg/ha): 0.0; Preemergence herbicidal rating ORYSAT (ORYSAT (Rice, Tebonnet); 0.0313 kg/ha): 0.0; Preemergence herbicidal rating ORYSAT (ORYSAT (Rice, Tebonnet); 0.0625 kg/ha): 1.0; Preemergence herbicidal rating ORYSAT (ORYSAT (Rice, Tebonnet); 0.1250 kg/ha): 1.0; Preemergence herbicidal rating ORYSAT (ORYSAT (Rice, Tebonnet); 0.2500 kg/ha): 1.0; Preemergence herbicidal rating ORYSAT (ORYSAT (Rice, Tebonnet); 0.5000 kg/ha): 5.0

From patent US20020137929A1, “1 - (3-heterocyclylphenyl) isothiourea, -isourea, -guanidine and -amidine herbicidal agents” (Intellectual Property Department, BASF Aktiengesellschaft, priority 1998, published 2002)
